Measurements as given in the supplement of paper PMC10307832.

Compound: COc1cc(-c2nn([C@H]3CC[C@H](N4CCN(C(C)=O)CC4)CC3)c3ncnc(N)c23)ccc1NC(=O)c1cc2ccccc2n1C + Nc1ncn([C@H]2C[C@H](O)[C@@H](CO)O2)c(=O)n1 [Decitabine] (partner 2 µM)
Assay: relative viability (nuclei count vs DMSO), 5 days (fraction); higher = more cells survive
Details: first compound 0.04048 µM
Procedure, shortened: (§1)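 Each reported value is a median over duplicate plates. It expresses relative viability: treated-well nuclei count divided by vehicle-well nuclei count. Lung cancer cell lines in 1536-well plates were dosed by pin tool a day after seeding, alone with one drug or with a fixed anchor-drug dose plus five library-drug doses (not always all listed) in √10 steps, and nuclei were counted after 5 days.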

Question: How did the relative viability turn out when SW 900 was run?
Answer: 0.381

Question: With NCI-H1792 as the cell line, how does the relative viability read?
Answer: 0.504

Question: How did the relative viability turn out when ABC-1 was run?
Answer: 1.03

Same assay, conditions: first compound 0.128 µM

Question: NCI-H2342 was tested. Which relative viability did it give?
Answer: 0.777

Question: With NCI-H727 as the cell line, how does the relative viability read?
Answer: 1.01

Question: For NCI-H1650, which relative viability is on record?
Answer: 0.341

Question: NCI-H1993 was tested. Which relative viability did it give?
Answer: 0.681

Question: SW 1573 was tested. Which relative viability did it give?
Answer: 0.491

Question: How did the relative viability turn out when NCI-H838 was run?
Answer: 0.518

Question: With LCLC-103H as the cell line, how does the relative viability read?
Answer: 0.691

Question: How did the relative viability turn out when NCI-H520 was run?
Answer: 0.436

Question: For NCI-H2126, which relative viability is on record?
Answer: 0.608

Question: How did the relative viability turn out when EMC-BAC-2 was run?
Answer: 0.913

Question: NCI-H2085 was tested. Which relative viability did it give?
Answer: 0.58

Question: For HCC-366, which relative viability is on record?
Answer: 0.351

Question: For NCI-H1666, which relative viability is on record?
Answer: 0.758

Question: NCI-H596 was tested. Which relative viability did it give?
Answer: 0.89

Question: LK-2 was tested. Which relative viability did it give?
Answer: 0.288

Question: NCI-H2087 was tested. Which relative viability did it give?
Answer: 0.198

Question: With NCI-H1648 as the cell line, how does the relative viability read?
Answer: 0.482

Question: How did the relative viability turn out when SK-MES-1 was run?
Answer: 0.454

Question: How did the relative viability turn out when H3255 was run?
Answer: 0.609

Question: How did the relative viability turn out when COR-L23 was run?
Answer: 0.446

Question: Which relative viability does the source give for COR-L 105 here?
Answer: 0.653

Question: How did the relative viability turn out when HCC-44 was run?
Answer: 0.846

Question: With A549 as the cell line, how does the relative viability read?
Answer: 0.228

Question: Which relative viability does the source give for NCI-H522 here?
Answer: 0.738

Question: SW 900 was tested. Which relative viability did it give?
Answer: 0.507

Question: Which relative viability does the source give for NCI-H1792 here?
Answer: 0.532

Question: ABC-1 was tested. Which relative viability did it give?
Answer: 0.835

Same assay, conditions: first compound 1.28 µM

Question: With NCI-H2342 as the cell line, how does the relative viability read?
Answer: 0.609

Question: Which relative viability does the source give for NCI-H727 here?
Answer: 0.84

Question: For NCI-H1650, which relative viability is on record?
Answer: 0.515

Question: NCI-H1993 was tested. Which relative viability did it give?
Answer: 0.617

Question: For SW 1573, which relative viability is on record?
Answer: 0.366

Question: With NCI-H838 as the cell line, how does the relative viability read?
Answer: 0.432

Question: For LCLC-103H, which relative viability is on record?
Answer: 0.759

Question: How did the relative viability turn out when NCI-H520 was run?
Answer: 0.368

Question: NCI-H2126 was tested. Which relative viability did it give?
Answer: 0.457

Question: How did the relative viability turn out when EMC-BAC-2 was run?
Answer: 0.955

Question: How did the relative viability turn out when NCI-H2085 was run?
Answer: 0.553

Question: With HCC-366 as the cell line, how does the relative viability read?
Answer: 0.306

Question: NCI-H1666 was tested. Which relative viability did it give?
Answer: 0.66

Question: How did the relative viability turn out when NCI-H596 was run?
Answer: 0.716

Question: How did the relative viability turn out when LK-2 was run?
Answer: 0.248

Question: For NCI-H2087, which relative viability is on record?
Answer: 0.225

Question: With NCI-H1648 as the cell line, how does the relative viability read?
Answer: 0.452

Question: Which relative viability does the source give for SK-MES-1 here?
Answer: 0.355

Question: For H3255, which relative viability is on record?
Answer: 0.472

Question: How did the relative viability turn out when COR-L23 was run?
Answer: 0.499

Question: Which relative viability does the source give for COR-L 105 here?
Answer: 0.559

Question: For HCC-44, which relative viability is on record?
Answer: 1.04

Question: How did the relative viability turn out when A549 was run?
Answer: 0.245

Question: Which relative viability does the source give for NCI-H522 here?
Answer: 0.717

Question: How did the relative viability turn out when SW 900 was run?
Answer: 0.52

Question: NCI-H1792 was tested. Which relative viability did it give?
Answer: 0.598

Question: How did the relative viability turn out when ABC-1 was run?
Answer: 0.998

Compound: COc1cc(-c2nn([C@H]3CC[C@H](N4CCN(C(C)=O)CC4)CC3)c3ncnc(N)c23)ccc1NC(=O)c1cc2ccccc2n1C + Nc1nc2[nH]cc(CCc3ccc(C(=O)N[C@@H](CCC(=O)O)C(=O)O)cc3)c2c(=O)[nH]1 [Pemetrexed] (partner 0.2 µM)
Assay: as above
Details: first compound 0.0128 µM
Procedure, shortened: as §1

Question: Which relative viability does the source give for NCI-H2342 here?
Answer: 0.762

Question: NCI-H1650 was tested. Which relative viability did it give?
Answer: 0.332

Question: Which relative viability does the source give for NCI-H1993 here?
Answer: 0.684

Question: For SW 1573, which relative viability is on record?
Answer: 0.862

Question: NCI-H838 was tested. Which relative viability did it give?
Answer: 0.254

Question: With LCLC-103H as the cell line, how does the relative viability read?
Answer: 0.54

Question: With NCI-H520 as the cell line, how does the relative viability read?
Answer: 0.637

Question: Which relative viability does the source give for NCI-H2126 here?
Answer: 0.621

Question: EMC-BAC-2 was tested. Which relative viability did it give?
Answer: 0.445

Question: For NCI-H2085, which relative viability is on record?
Answer: 0.915

Question: For HCC-366, which relative viability is on record?
Answer: 0.141

Question: For NCI-H1666, which relative viability is on record?
Answer: 0.881

Question: For NCI-H596, which relative viability is on record?
Answer: 0.494

Question: For LK-2, which relative viability is on record?
Answer: 0.298

Question: NCI-H2087 was tested. Which relative viability did it give?
Answer: 0.601

Question: Which relative viability does the source give for NCI-H1648 here?
Answer: 0.92

Question: With SK-MES-1 as the cell line, how does the relative viability read?
Answer: 1.08

Question: Which relative viability does the source give for H3255 here?
Answer: 0.628

Question: For COR-L23, which relative viability is on record?
Answer: 0.193

Question: COR-L 105 was tested. Which relative viability did it give?
Answer: 1.08

Question: How did the relative viability turn out when HCC-44 was run?
Answer: 0.719

Question: NCI-H522 was tested. Which relative viability did it give?
Answer: 1

Question: SW 900 was tested. Which relative viability did it give?
Answer: 0.487

Question: CAL-12T was tested. Which relative viability did it give?
Answer: 1.39

Question: Which relative viability does the source give for NCI-H2228 here?
Answer: 0.362

Question: How did the relative viability turn out when NCI-H1792 was run?
Answer: 0.883

Question: For NCI-H1563, which relative viability is on record?
Answer: 0.755

Same assay, conditions: first compound 0.04048 µM

Question: How did the relative viability turn out when NCI-H2342 was run?
Answer: 0.821

Question: With NCI-H1650 as the cell line, how does the relative viability read?
Answer: 0.384

Question: How did the relative viability turn out when NCI-H1993 was run?
Answer: 0.543

Question: For SW 1573, which relative viability is on record?
Answer: 0.754

Question: With NCI-H838 as the cell line, how does the relative viability read?
Answer: 0.262

Question: LCLC-103H was tested. Which relative viability did it give?
Answer: 0.428

Question: Which relative viability does the source give for NCI-H520 here?
Answer: 0.732

Question: How did the relative viability turn out when NCI-H2126 was run?
Answer: 0.656

Question: EMC-BAC-2 was tested. Which relative viability did it give?
Answer: 0.557

Question: With NCI-H2085 as the cell line, how does the relative viability read?
Answer: 0.86

Question: How did the relative viability turn out when HCC-366 was run?
Answer: 0.24

Question: With NCI-H1666 as the cell line, how does the relative viability read?
Answer: 0.803

Question: For NCI-H596, which relative viability is on record?
Answer: 0.536

Question: With LK-2 as the cell line, how does the relative viability read?
Answer: 0.248

Question: For NCI-H1648, which relative viability is on record?
Answer: 0.738

Question: For SK-MES-1, which relative viability is on record?
Answer: 0.994

Question: How did the relative viability turn out when H3255 was run?
Answer: 0.567

Question: Which relative viability does the source give for COR-L23 here?
Answer: 0.206

Question: How did the relative viability turn out when COR-L 105 was run?
Answer: 1.11

Question: With HCC-44 as the cell line, how does the relative viability read?
Answer: 0.742

Question: Which relative viability does the source give for NCI-H522 here?
Answer: 0.939

Question: With SW 900 as the cell line, how does the relative viability read?
Answer: 0.489

Question: Which relative viability does the source give for CAL-12T here?
Answer: 1.21

Question: NCI-H2228 was tested. Which relative viability did it give?
Answer: 0.348

Question: How did the relative viability turn out when NCI-H1792 was run?
Answer: 0.913

Question: For NCI-H1563, which relative viability is on record?
Answer: 0.778

Same assay, conditions: first compound 0.128 µM

Question: For NCI-H2342, which relative viability is on record?
Answer: 0.781

Question: For NCI-H1650, which relative viability is on record?
Answer: 0.348

Question: NCI-H1993 was tested. Which relative viability did it give?
Answer: 0.598

Question: Which relative viability does the source give for SW 1573 here?
Answer: 0.885

Question: How did the relative viability turn out when NCI-H838 was run?
Answer: 0.224

Question: With LCLC-103H as the cell line, how does the relative viability read?
Answer: 0.47

Question: Which relative viability does the source give for NCI-H520 here?
Answer: 0.603

Question: Which relative viability does the source give for NCI-H2126 here?
Answer: 0.669

Question: How did the relative viability turn out when EMC-BAC-2 was run?
Answer: 0.426

Question: NCI-H2085 was tested. Which relative viability did it give?
Answer: 0.81

Question: How did the relative viability turn out when HCC-366 was run?
Answer: 0.208

Question: With NCI-H1666 as the cell line, how does the relative viability read?
Answer: 0.84

Question: With NCI-H596 as the cell line, how does the relative viability read?
Answer: 0.517

Question: For LK-2, which relative viability is on record?
Answer: 0.27

Question: With NCI-H2087 as the cell line, how does the relative viability read?
Answer: 0.697

Question: With NCI-H1648 as the cell line, how does the relative viability read?
Answer: 0.857

Question: Which relative viability does the source give for SK-MES-1 here?
Answer: 0.904

Question: H3255 was tested. Which relative viability did it give?
Answer: 0.578

Question: How did the relative viability turn out when COR-L23 was run?
Answer: 0.189

Question: How did the relative viability turn out when COR-L 105 was run?
Answer: 1.1

Question: For HCC-44, which relative viability is on record?
Answer: 0.607

Question: With NCI-H522 as the cell line, how does the relative viability read?
Answer: 1.14

Question: Which relative viability does the source give for SW 900 here?
Answer: 0.469

Question: With CAL-12T as the cell line, how does the relative viability read?
Answer: 1.15

Question: How did the relative viability turn out when NCI-H2228 was run?
Answer: 0.31

Question: With NCI-H1792 as the cell line, how does the relative viability read?
Answer: 0.797

Question: How did the relative viability turn out when NCI-H1563 was run?
Answer: 0.853

Same assay, conditions: first compound 1.28 µM

Question: With NCI-H2342 as the cell line, how does the relative viability read?
Answer: 0.771

Question: With NCI-H1650 as the cell line, how does the relative viability read?
Answer: 0.468

Question: With NCI-H1993 as the cell line, how does the relative viability read?
Answer: 0.599

Question: SW 1573 was tested. Which relative viability did it give?
Answer: 0.759

Question: NCI-H838 was tested. Which relative viability did it give?
Answer: 0.221

Question: With LCLC-103H as the cell line, how does the relative viability read?
Answer: 0.471

Question: Which relative viability does the source give for NCI-H520 here?
Answer: 0.409

Question: With NCI-H2126 as the cell line, how does the relative viability read?
Answer: 0.618

Question: How did the relative viability turn out when EMC-BAC-2 was run?
Answer: 0.493

Question: With NCI-H2085 as the cell line, how does the relative viability read?
Answer: 0.539

Question: How did the relative viability turn out when HCC-366 was run?
Answer: 0.232

Question: For NCI-H1666, which relative viability is on record?
Answer: 0.847
